From the METLIN SMRT retention time set (Domingo-Almenara et al. 2019) come the findings set out here.

SMILES strings stand for the structures.

The data set is described as follows: gradient 5% acetonitrile 3 min, to 50% in 2 min, to 85% in 15 min, held 3 min, 100 µL/min. As to conditions: column: Zorbax Extend-C18 2.1 x 50 mm; eluents: water / acetonitrile, 0.1% formic acid. Put shortly:
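Retention time was recorded from adduct peaks, which were picked computationally and each inspected manually. Pure standards ran in mixtures of ~100 molecules on HPLC coupled to a quadrupole time-of-flight mass spectrometer, in positive and negative ionization mode, through a Zorbax Extend-C18 column (2.1 × 50 mm, 1.8 μm) at 100 μL/min. Eluents were water and acetonitrile, each with 0.1% formic acid.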
In turn, `CC(C)NC(=O)c1ccc(OCC2CCN(C(=O)Cc3ccc(F)cc3)CC2)cc1` yielded an RP-LC retention time of 860 s.

The compound `Cc1noc2nc(CCC(=O)Nc3ccc(Cl)cc3F)nc(N3CCOCC3)c12` returned an RP-LC retention time of 818 s.

`CCNC(=O)C1CCCN(c2nc3ncn(CC(=O)Nc4ccc(F)c(Cl)c4)c(=O)c3s2)C1` (centres undefined) returned an RP-LC retention time of 698 s.

In turn, `O=C(NCc1ccco1)N1CCN(c2nc3cccnc3n(Cc3ccccc3)c2=O)CC1` gave an RP-LC retention time of 935 s.

`CCc1ccc(-c2cc3c(=O)n(Cc4noc(CN5CCCCC5CC)n4)ccn3n2)cc1` (centres undefined) returned an RP-LC retention time of 778 s.

`Cc1cccc(N2CCN(C(=O)c3cn(-c4cc(N5CCSCC5)ncn4)cn3)CC2)c1`: the RP-LC retention time was found to be 932 s.

For `CCN(C(=O)c1cccc(F)c1)c1nc(-c2ccccc2)cs1`, the RP-LC retention time is 1230 s.

In turn, `Cc1sc(-c2cc(C(F)(F)F)[nH]n2)cc1S(=O)(=O)N1CCN(c2ccc(F)cc2)CC1` displayed an RP-LC retention time of 1110 s.

For the compound `COc1ccc(CCc2nc3nccc(-c4ccc(F)cc4OC)n3n2)cc1`, the RP-LC retention time was determined as 916 s.

The compound `O=c1c(NCCCc2ccccc2)nc2ccncc2n1Cc1ccccc1` showed an RP-LC retention time of 778 s.

With `Cc1oc(C2CCN(S(=O)(=O)c3ccccc3F)CC2)nc1C(=O)N1CCOCC1`, the RP-LC retention time worked out at 776 s.

Take `CCN1CCN(CCNC(=O)c2ccc3c(c2)N(C)C(=O)C2CCCCN32)CC1` (centres undefined): the RP-LC retention time came to 579 s.

Compound `O=C(c1nc(Nc2ccc(F)cc2)c2ccccc2n1)N1CCOCC1` returned an RP-LC retention time of 685 s.

As for `CCn1cc(-c2nc(C(=O)Nc3cccc(C(=O)OC)c3)cs2)c2cccnc21`, the RP-LC retention time turned out to be 1060 s.

For the compound `Cc1oc(C2CCN(C(=O)Nc3ccc(F)cc3F)CC2)nc1C(=O)N1CCOCC1`, the RP-LC retention time came out at 680 s.

With `CN(C)c1ccc(-c2nc3cnc(Br)cn3c2Nc2ccc3c(c2)OCCO3)cc1`, the RP-LC retention time came out at 881 s.

Compound `O=C(c1ccc(Cl)cc1)N1CCN(C(=O)c2nnn3c2COC(c2ccccc2)C3)CC1` (centres undefined) showed an RP-LC retention time of 888 s.

As for `COc1ccc(CNC(=O)C2CCCN(c3nc4ccccc4n(Cc4ccccc4)c3=O)C2)cc1` (centres undefined), the RP-LC retention time came out at 1090 s.

In turn, `Cc1ccc(-c2nc3cnccn3c2Nc2c(C)cccc2C)cc1` returned an RP-LC retention time of 947 s.

`CCCCN1C(=O)c2cc(S(=O)(=O)Nc3ccccc3C)ccc2Oc2cccnc21` came in with an RP-LC retention time of 1130 s.

`CCOC(=O)c1c(C)c(CCC(=O)NCCN2CCN(C)CC2)n(C)c1C` registered an RP-LC retention time of 596 s.

In the case of `O=C(Nc1ccc(F)cc1F)C1CCCN(S(=O)(=O)Cc2ccc(F)cc2)C1` (centres undefined), the RP-LC retention time turned out to be 976 s.

The compound `O=C([C@@H]1C[C@H](F)CN1S(=O)(=O)c1cccc(Cl)c1)N1CCc2ccccc2C1` had an RP-LC retention time of 927 s.

The compound `COc1ccccc1CCC(=O)N1CCCn2nc(-c3ccc(C)cc3)cc2C1` yielded an RP-LC retention time of 1020 s.

On to `CC(C(=O)Nc1ccc2c(c1)OCCO2)n1cnc2nc3c(cc2c1=O)CCCC3` (centres undefined), for which the RP-LC retention time worked out at 712 s.

On to `Cc1ccc(C(=O)N2CCc3cc(CNC(=O)c4ccnn4C)ccc32)cc1`, for which the RP-LC retention time stood at 821 s.

Consider `Cn1nccc1-c1cccc(-c2noc(COc3ccc(Cl)cc3)n2)c1`, for which the RP-LC retention time is 1120 s.

The compound `O=C(CCSCc1ccccc1F)N1CCN(c2ccccn2)CC1` came in with an RP-LC retention time of 645 s.

`Cc1ccc(NC(=O)N2CCC(N3CCN(Cc4ccccc4)C3=O)CC2)c(C)c1` displayed an RP-LC retention time of 843 s.

`CCCN1CCCCc2cc(C(=O)NC3CCS(=O)(=O)C3)sc21` (centres undefined) gave an RP-LC retention time of 884 s.

`Cc1cccc(CN2CCN(CC(=O)NCc3ccc4c(c3)OCO4)C(=O)C2=O)c1`: the RP-LC retention time was 723 s.

For the compound `COc1ccc(N2C(=O)N[C@H]3C[C@@]2(C)Oc2c(OC)cccc23)c(OC)c1`, the RP-LC retention time amounted to 712 s.

On to `COCCCNC(=O)Cn1c(=O)n(-c2ccccc2)c2ncccc21`, for which the RP-LC retention time came to 650 s.

For the compound `CCc1nnc([C@@H]2CC(F)(F)CN2C(=O)c2n[nH]c3ccccc23)o1`, the RP-LC retention time came out at 734 s.

In turn, `O=C(NCc1cccc(F)c1)c1cc2n(n1)CCCC2` registered an RP-LC retention time of 782 s.

The compound `CC(C)C(=O)Nc1nnc(SCc2nnc(-c3ccc4c(c3)OCO4)o2)s1` gave an RP-LC retention time of 773 s.

With `Cc1ccccc1-c1nnc(CSc2nnc(NC(=O)c3ccccc3C(F)(F)F)s2)o1`, the RP-LC retention time is 972 s.

As for `O=S(=O)(c1cccn2cnnc12)N(Cc1ccc(F)cc1)c1ccc(F)cc1`, the RP-LC retention time was determined as 834 s.

Compound `CCOC(=O)c1c(S(=O)(=O)N2CCC(C(=O)Nc3ccc(Cl)cc3)CC2)c(C)n(CC)c1C` registered an RP-LC retention time of 957 s.

`CC1=NS(=O)(=O)N(C)C=C1C(=O)OCc1nc(-c2cccc(Cl)c2)no1` returned an RP-LC retention time of 1010 s.

As for `CCOc1ccc(NC(=O)CN2C(=O)c3ccccc3Sc3ncccc32)cc1`, the RP-LC retention time was 843 s.

The compound `CCOc1ccc(-c2cc3c(=O)n(Cc4nc(-c5ccc(F)cc5)no4)ncn3n2)cc1` came in with an RP-LC retention time of 1160 s.

The compound `Cc1ccc(NC(=O)CCC(=O)O)c(C)c1` came in with an RP-LC retention time of 627 s.

Take `O=C(CCC1CCN(S(=O)(=O)c2ccccc2F)CC1)NC1CC1`: the RP-LC retention time is 752 s.

On to `COCCn1cc(C(=O)NCc2c(F)cccc2F)c2nn(-c3ccccc3)c(=O)c-2c1`, for which the RP-LC retention time was 809 s.

`Cc1ccc(NC(=O)Cn2cnc3nc(N4CCCC(C(=O)NC(C)C)C4)sc3c2=O)cc1C` (centres undefined) showed an RP-LC retention time of 730 s.

In turn, `C=CCn1c(-c2ccc(OC)cc2)nc2nc3ccccc3nc21` yielded an RP-LC retention time of 813 s.

For `Cc1ccc(Cl)cc1NC(=O)C1CCN(S(=O)(=O)c2ccc3c(c2)NC(=O)CO3)CC1`, the RP-LC retention time was determined as 786 s.

Turning to `O=C(Nc1ccc(-c2nnc3n2CCCC3)cc1)c1cc(C2CC2)[nH]n1`, the RP-LC retention time is 625 s.

`CCCN1CCN(CCCNC(=O)CCc2nc(N3CCCCC3)c3c(CC)noc3n2)CC1`: the RP-LC retention time is 598 s.

In the case of `CC1CCCN(CCCNC(=O)CN2C(=O)CCc3cc(S(=O)(=O)N4CCCCC4)ccc32)C1` (centres undefined), the RP-LC retention time was 638 s.

`CCCN1C(=O)c2[nH]nc(-c3ccc(OC)cc3)c2C1c1cccnc1` (centres undefined) showed an RP-LC retention time of 656 s.

The compound `CCn1ccc(NC(=O)c2cc(C)ccc2C)n1` yielded an RP-LC retention time of 733 s.

The compound `CCCC(NC(=O)c1sccc1C)C(=O)Nc1nc2ccccc2[nH]1` (centres undefined) showed an RP-LC retention time of 686 s.

In the case of `CCn1c(=O)c(N2CCN(C(=O)Nc3cc(C)cc(C)c3)CC2)nc2ccccc21`, the RP-LC retention time turned out to be 927 s.

As for `c1ccc(-c2nnc(CN3CCCCC3)o2)cc1`, the RP-LC retention time was 566 s.

Turning to `Cn1c(N2CCC(C(=O)N3CCN(c4ccc(Cl)cc4)CC3)CC2)cc(=O)n(C)c1=O`, the RP-LC retention time amounted to 721 s.

In turn, `O=c1n(Cc2ccc(F)cc2Cl)nc2ccc(S(=O)(=O)N3CCOCC3)cn12` showed an RP-LC retention time of 863 s.

Regarding `O=S(=O)(Cc1cccc(F)c1)NCC1CCN(Cc2ccsc2)CC1`, the RP-LC retention time is 578 s.

In turn, `NC(=O)c1ncn2c(=O)n(CCCl)nnc12` had an RP-LC retention time of 645 s.

`O=C(CSc1nccn1-c1ccc(Cl)cc1)NCc1ccco1` showed an RP-LC retention time of 655 s.

Compound `O=C(c1cc(S(=O)(=O)N2CCCCCC2)ccc1Cl)N1CCN(c2ncccn2)CC1` had an RP-LC retention time of 926 s.

`Cc1ccc(-c2cn3c(CC(=O)NC4CCCCC4)csc3n2)cc1C` returned an RP-LC retention time of 829 s.

With `Cc1cc(C)n2c(Nc3ccc4c(c3)OCCO4)c(-c3cccc(Br)c3)nc2n1`, the RP-LC retention time stood at 759 s.

As for `CCc1ccc(OCC(=O)Nc2cnn(C)c(=O)c2N2CCOCC2)cc1`, the RP-LC retention time is 889 s.

The compound `O=c1c(=O)n(-c2ccccc2)ccn1Cc1cccc(C(F)(F)F)c1` returned an RP-LC retention time of 770 s.

For `Cc1noc2ncn(CC(=O)Nc3c(F)c(F)cc(F)c3F)c(=O)c12`, the RP-LC retention time came to 759 s.

`CC1CCCN(S(=O)(=O)c2ccc(-c3nnc(C4CC4)o3)o2)C1` (centres undefined) yielded an RP-LC retention time of 940 s.

`CCOc1ccc(C2c3[nH]c4ccccc4c3CCN2C(=O)C2CC2)cc1` (centres undefined) gave an RP-LC retention time of 1090 s.

In turn, `CCn1cnc(S(=O)(=O)N2CCC(C(=O)N3CCC(C)CC3)CC2)c1` showed an RP-LC retention time of 678 s.

`Fc1cccc(-c2noc(Cc3nnc(-c4cccc(Cl)c4)o3)n2)c1` displayed an RP-LC retention time of 1110 s.

The compound `Cc1csc(-c2ccc(N3CCN(C(=O)c4ccoc4)CC3)nc2)n1` showed an RP-LC retention time of 716 s.

The compound `N#Cc1ccc(C(=O)N2CCCCC2c2nncn2CC2CC2)cc1` (centres undefined) came in with an RP-LC retention time of 677 s.

The compound `CCc1nnc(NC(=O)CN2C(=O)C3CCCCN3c3ccc(C(=O)N(C)C)cc32)s1` (centres undefined) yielded an RP-LC retention time of 700 s.

Take `CCOC(=O)CC1(NC(=O)N2CCN(c3nc4ccccc4n3C)CC2)CCCCC1`: the RP-LC retention time came to 593 s.

For `CN(C)S(=O)(=O)c1ccc(-c2nnc(C(=O)N3CCCCC3)o2)cc1`, the RP-LC retention time was 824 s.

For the compound `O=C1NC(=S)S/C1=C\c1ccccc1C(=O)O`, the RP-LC retention time was 835 s.

`Cc1noc(-c2ccc(=O)n(CC(C)C)n2)n1` registered an RP-LC retention time of 761 s.

Turning to `COc1ccccc1-n1ncc2c(C(C)C)nnc(SCC(=O)NCc3ccco3)c21`, the RP-LC retention time was 729 s.
